According to ChEMBL document CHEMBL1201862, “PubChem BioAssay data set” (2004):
Calls of active or inactive are those of the source.

Experiments:
[1] = target: Integrin alpha-L (Mus musculus, UniProt P24063); assay: modulators of CD8 T cell-vesicle binding, dose response, powder samples, mouse 2C CD8+ cells (AID 504565); assay type: functional
[2] = target: T1, Cannabinoid receptor 1 (Homo sapiens, UniProt P21554); assay: SAR analysis of agonists of the Cannabinoid Receptor 1 using an Image-Based Assay - Set 3. [Related pubchem assays (depositor defined):AID1961, AID1965]; assay type: functional
[3] = target: T1, Cannabinoid receptor 1; assay: SAR analysis of antagonists of the Cannabinoid Receptor 1 using an Image-Based Assay - Set 3. [Related pubchem assays (depositor defined):AID1961, AID1965]; assay type: functional
[4] = target: G-protein coupled receptor 55 (Homo sapiens, UniProt Q9Y2T6); assay: SAR analysis of selective Agonists of GPR55 using an Image-Based Assay - Set 2. [Related pubchem assays (depositor defined):AID1961, AID1965]; assay type: functional
[5] = target: T2, G-protein coupled receptor 35 (Homo sapiens, UniProt Q9HC97); assay: SAR analysis of Antagonists of the GPR35 Receptor using an Image-Based Assay - Set 4. [Related pubchem assays (depositor defined):[…]]; assay type: functional
[6] = target: T3, Cannabinoid receptor 2 (Homo sapiens, UniProt P34972); assay: SAR analysis of antagonists of the Cannabinoid Receptor 2 using an Image-Based Assay - Set 2. [Related pubchem assays (depositor defined):AID1961, AID1965]; assay type: functional
[7] = target: T2, G-protein coupled receptor 35; assay: SAR analysis of Agonists of the GPR35 Receptor using an Image-Based Assay - Set 3. [Related pubchem assays (depositor defined):AID1961, AID1965]; assay type: functional
[8] = target: T3, Cannabinoid receptor 2; assay: SAR analysis of agonists of the Cannabinoid Receptor 2 using an Image-Based Assay - Set 2. [Related pubchem assays (depositor defined):AID1961, AID1965]; assay type: functional
[9] = tested on: HEK293; assay: cells; assay type: functional, cell-based; conditions: Homo sapiens
[10] = target: Nucleotide-binding oligomerization domain-containing protein 2 (Homo sapiens, UniProt Q9HC29); assay: inhibition of NOD2-driven NF-kB reporter – cell-based, luminescence, uHTS, HEK293 (AID 1566); assay type: functional
[11] = target: T4, Replicative DNA helicase DnaB (Mycobacterium tuberculosis, UniProt P9WMR3); assay: DnaB intein splicing inhibitors, dose response, biochemical, cell-free fluorescence (AID 449749); assay type: functional
T4 sequence (P9WMR3 whole entry): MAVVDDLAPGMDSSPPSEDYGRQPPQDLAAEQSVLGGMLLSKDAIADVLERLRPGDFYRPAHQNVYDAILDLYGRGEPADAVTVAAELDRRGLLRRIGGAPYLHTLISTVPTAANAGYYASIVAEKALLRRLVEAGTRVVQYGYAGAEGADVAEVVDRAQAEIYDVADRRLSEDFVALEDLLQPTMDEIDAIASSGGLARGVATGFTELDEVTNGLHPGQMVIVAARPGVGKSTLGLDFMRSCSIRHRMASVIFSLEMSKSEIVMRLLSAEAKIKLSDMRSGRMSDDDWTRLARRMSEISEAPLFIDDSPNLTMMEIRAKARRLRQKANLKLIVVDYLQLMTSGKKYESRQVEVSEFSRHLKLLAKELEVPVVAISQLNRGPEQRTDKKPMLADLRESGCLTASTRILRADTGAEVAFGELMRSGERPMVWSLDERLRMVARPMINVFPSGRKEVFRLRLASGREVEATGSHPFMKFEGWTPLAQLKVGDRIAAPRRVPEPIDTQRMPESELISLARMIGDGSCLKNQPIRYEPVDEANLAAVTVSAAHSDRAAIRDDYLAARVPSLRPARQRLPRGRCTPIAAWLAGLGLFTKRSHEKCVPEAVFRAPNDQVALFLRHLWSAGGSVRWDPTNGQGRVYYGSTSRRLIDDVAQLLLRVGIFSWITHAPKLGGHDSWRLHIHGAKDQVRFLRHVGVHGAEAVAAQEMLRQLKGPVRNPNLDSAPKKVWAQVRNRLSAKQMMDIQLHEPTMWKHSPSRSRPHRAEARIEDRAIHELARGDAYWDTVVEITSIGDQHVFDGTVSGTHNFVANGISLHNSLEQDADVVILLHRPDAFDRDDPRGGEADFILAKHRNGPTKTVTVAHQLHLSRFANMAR

[12] = tested on: HEK293; assay: NOD2 signaling inhibitors in MDP-stimulated cells, cell-based, uHTS, luminescence (AID 2001); assay type: functional; conditions: Homo sapiens
[13] = microbe, parasite or virus in culture; assay type: functional; conditions: Mycobacterium tuberculosis
[14] = tested on: BJ; assay: BJ-TERT fibroblast viability loss – cell-based, RAS-independent, luminescence, dose response (AID 1933); assay type: functional; conditions: Homo sapiens
[15] = tested on: HEK293; assay: inhibition of NOD1-driven NF-kB reporter – cell-based, luminescence, uHTS, primary screen (AID 1578); assay type: functional; conditions: Homo sapiens
[16] = target: T5, Microphthalmia-associated transcription factor (Homo sapiens, UniProt O75030); assay: reducers of TRPM1 reporter luminescence, concentration series – cell-based, SK-MEL-5, cherry-picked, set 3, MITF inhibitor project, dose response (AID 493073); assay type: functional;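 note: SK-MEL-5 melanoma cells with luciferase driven by the MITF target TRPM1 promoter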
T5 sequence (O75030 whole entry): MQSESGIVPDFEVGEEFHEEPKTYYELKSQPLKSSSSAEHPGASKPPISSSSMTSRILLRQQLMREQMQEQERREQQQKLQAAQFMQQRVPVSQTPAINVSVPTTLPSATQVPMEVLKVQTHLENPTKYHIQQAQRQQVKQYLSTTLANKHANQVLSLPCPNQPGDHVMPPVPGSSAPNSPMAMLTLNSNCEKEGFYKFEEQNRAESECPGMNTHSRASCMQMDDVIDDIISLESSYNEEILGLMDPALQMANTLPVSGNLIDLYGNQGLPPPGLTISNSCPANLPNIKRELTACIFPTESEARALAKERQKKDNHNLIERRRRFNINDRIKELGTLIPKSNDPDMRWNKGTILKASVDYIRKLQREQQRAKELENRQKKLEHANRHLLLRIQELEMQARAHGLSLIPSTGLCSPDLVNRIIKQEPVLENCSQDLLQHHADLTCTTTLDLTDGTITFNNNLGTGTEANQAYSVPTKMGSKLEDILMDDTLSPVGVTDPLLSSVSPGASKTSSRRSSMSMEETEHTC

[17] = DRD fibroblast viability loss – cell-based, non-viral oncogenic, luminescence, dose response (AID 1934); assay type: functional; conditions: Homo sapiens
[18] = tested on: BJ; assay: BJ-TERT-LT-ST fibroblast viability loss – cell-based, RAS-independent, luminescence, dose response (AID 1935); assay type: functional; conditions: Homo sapiens;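 note: BJ fibroblasts immortalized with TERT plus LT and ST oncogenes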
[19] = tested on: HEK293; assay: cells; assay type: functional, cell-based; conditions: Homo sapiens; remark: listed apart in the source
[20] = target: T6, Protein RecA (Mycobacterium tuberculosis, UniProt P9WHJ3); assay: Fluorescence Cell-Free Homogeneous Dose Retest to Identify Inhibitors of RecA-Intein Splicing Activity. [Related pubchem assays (depositor defined):AID2097, AID2223, AID489010, AID492950]; assay type: functional
T6 sequence (P9WHJ3 whole entry): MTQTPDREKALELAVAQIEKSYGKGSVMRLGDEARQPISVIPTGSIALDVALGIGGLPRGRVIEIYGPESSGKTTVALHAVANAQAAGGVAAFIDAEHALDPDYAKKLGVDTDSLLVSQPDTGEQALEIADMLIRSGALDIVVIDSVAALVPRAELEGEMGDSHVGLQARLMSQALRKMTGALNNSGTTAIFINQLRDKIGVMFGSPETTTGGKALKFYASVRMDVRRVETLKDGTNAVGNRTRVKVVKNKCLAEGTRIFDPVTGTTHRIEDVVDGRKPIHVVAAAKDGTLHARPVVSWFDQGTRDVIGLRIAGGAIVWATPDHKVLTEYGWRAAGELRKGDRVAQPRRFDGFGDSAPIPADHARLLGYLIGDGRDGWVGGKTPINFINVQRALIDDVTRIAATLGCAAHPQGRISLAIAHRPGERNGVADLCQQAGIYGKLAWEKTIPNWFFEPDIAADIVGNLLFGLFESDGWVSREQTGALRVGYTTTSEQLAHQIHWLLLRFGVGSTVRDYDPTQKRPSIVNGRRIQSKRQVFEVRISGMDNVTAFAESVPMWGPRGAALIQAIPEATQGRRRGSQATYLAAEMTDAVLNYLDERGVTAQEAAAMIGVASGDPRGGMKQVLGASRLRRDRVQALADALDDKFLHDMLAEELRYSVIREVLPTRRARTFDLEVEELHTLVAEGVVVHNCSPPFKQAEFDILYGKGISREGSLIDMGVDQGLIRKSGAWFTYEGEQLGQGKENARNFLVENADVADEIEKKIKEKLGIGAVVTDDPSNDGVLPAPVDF

[21] = tested on: HEK293; assay: cells; assay type: functional, cell-based; conditions: Homo sapiens; remark: listed apart in the source
[22] = target: DNA damage-inducible transcript 3 protein (Mus musculus, UniProt P35639); assay type: functional, Cricetulus griseus
[23] = tested on: BJ; assay: cells; assay type: functional, cell-based; conditions: Homo sapiens

T1 sequence (P21554 whole entry): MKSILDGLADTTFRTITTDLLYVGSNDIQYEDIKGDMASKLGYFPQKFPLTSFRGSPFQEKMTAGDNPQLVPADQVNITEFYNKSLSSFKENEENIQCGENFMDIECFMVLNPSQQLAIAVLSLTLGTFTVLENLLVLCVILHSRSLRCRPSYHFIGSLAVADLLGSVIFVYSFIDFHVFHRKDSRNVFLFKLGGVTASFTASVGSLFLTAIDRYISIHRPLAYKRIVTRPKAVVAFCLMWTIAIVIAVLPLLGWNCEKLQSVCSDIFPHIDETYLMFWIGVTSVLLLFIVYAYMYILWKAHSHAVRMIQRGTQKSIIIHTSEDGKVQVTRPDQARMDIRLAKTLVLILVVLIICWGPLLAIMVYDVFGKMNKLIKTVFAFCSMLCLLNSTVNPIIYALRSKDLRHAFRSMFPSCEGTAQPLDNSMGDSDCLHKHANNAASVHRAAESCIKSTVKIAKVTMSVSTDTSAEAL
T2 sequence (Q9HC97 whole entry): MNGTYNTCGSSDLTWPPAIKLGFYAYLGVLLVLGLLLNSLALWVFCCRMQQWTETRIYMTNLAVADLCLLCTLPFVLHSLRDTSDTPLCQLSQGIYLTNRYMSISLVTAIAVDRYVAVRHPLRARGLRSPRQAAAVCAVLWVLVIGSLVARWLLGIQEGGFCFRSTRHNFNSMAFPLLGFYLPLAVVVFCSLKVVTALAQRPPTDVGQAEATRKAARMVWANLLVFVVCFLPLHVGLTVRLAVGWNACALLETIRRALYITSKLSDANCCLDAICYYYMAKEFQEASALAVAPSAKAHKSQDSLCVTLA
T3 sequence (P34972 whole entry): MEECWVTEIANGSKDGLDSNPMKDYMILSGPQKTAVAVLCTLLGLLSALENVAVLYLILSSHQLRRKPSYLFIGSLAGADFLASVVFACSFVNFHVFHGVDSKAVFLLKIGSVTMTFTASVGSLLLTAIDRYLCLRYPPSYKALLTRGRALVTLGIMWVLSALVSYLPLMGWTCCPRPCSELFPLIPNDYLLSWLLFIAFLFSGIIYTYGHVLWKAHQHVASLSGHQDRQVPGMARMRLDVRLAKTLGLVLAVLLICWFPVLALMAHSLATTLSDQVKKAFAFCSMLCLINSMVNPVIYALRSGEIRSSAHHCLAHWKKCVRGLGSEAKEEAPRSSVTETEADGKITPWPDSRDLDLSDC
Integrin alpha-L, sequence (P24063 whole entry): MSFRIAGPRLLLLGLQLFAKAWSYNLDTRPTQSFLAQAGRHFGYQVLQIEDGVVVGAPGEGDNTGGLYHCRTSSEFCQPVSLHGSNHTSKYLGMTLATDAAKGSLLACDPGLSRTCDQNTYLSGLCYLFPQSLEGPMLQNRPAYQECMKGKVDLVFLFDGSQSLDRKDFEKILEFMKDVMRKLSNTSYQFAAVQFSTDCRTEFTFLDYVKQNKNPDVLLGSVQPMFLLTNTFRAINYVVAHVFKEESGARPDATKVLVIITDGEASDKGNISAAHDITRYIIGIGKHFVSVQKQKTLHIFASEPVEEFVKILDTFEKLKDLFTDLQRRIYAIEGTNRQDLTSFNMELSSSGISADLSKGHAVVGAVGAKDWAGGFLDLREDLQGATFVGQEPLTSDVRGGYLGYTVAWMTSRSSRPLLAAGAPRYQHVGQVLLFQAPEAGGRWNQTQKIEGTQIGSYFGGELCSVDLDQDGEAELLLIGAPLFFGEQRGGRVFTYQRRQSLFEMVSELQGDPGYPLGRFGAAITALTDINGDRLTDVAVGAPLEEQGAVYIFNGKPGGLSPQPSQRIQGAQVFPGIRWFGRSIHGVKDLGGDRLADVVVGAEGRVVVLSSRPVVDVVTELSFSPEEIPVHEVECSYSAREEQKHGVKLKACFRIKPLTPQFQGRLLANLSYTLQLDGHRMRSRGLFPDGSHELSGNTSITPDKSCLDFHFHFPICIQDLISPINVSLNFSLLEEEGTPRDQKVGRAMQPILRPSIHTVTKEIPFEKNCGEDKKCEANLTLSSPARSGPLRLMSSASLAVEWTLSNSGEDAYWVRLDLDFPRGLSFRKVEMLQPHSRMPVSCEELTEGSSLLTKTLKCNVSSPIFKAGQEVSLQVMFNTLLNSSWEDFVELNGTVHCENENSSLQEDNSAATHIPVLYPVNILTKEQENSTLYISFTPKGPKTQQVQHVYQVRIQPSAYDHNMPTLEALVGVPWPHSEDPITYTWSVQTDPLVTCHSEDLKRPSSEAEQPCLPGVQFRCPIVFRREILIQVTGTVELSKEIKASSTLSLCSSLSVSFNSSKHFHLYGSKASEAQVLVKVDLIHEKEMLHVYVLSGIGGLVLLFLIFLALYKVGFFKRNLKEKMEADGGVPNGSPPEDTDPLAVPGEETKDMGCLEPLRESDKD
DNA damage-inducible transcript 3 protein, sequence (P35639 whole entry): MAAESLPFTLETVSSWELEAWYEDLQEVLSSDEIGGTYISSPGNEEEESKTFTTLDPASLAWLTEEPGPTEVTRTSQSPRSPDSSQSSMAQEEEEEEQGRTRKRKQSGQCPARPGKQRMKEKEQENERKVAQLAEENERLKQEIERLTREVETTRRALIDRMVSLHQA
Nucleotide-binding oligomerization domain-containing protein 2, sequence (Q9HC29 whole entry, the tested form may be a part): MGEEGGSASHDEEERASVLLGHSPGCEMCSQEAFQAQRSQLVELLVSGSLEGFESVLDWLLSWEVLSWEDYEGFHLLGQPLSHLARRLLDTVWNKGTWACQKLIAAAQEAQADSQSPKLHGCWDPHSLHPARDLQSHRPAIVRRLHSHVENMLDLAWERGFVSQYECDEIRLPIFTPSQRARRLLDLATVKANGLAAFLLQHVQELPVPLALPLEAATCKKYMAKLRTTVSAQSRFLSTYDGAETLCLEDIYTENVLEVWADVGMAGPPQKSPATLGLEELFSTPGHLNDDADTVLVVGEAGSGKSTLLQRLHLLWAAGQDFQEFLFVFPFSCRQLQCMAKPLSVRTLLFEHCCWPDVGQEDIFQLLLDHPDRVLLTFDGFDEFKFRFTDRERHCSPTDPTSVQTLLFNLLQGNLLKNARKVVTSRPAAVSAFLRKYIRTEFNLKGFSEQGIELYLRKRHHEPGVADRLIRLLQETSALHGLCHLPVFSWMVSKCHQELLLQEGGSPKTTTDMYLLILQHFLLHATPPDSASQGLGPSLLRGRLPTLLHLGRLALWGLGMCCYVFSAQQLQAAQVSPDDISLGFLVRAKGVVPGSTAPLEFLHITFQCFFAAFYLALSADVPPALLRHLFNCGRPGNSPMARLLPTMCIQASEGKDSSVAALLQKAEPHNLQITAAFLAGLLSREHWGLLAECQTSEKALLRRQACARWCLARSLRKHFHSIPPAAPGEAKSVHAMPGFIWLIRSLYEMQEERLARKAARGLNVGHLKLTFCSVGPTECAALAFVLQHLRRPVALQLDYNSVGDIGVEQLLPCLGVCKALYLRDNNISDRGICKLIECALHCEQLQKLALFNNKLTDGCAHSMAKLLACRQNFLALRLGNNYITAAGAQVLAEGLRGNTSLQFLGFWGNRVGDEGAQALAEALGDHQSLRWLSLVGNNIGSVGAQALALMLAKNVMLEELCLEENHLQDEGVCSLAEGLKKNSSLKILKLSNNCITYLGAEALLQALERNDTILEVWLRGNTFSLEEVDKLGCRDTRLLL
G-protein coupled receptor 55, sequence (Q9Y2T6 whole entry): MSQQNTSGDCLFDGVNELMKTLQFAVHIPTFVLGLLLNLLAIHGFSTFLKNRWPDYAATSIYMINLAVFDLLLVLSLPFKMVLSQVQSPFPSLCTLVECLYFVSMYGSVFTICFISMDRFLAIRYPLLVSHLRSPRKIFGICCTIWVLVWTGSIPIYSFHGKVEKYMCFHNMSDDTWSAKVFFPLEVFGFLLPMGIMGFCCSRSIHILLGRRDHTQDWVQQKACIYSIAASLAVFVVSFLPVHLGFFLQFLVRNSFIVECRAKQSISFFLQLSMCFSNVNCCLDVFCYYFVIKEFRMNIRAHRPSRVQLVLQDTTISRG

## O=C(COC(=O)C12CC3CC(CC(Br)(C3)C1)C2)Nc1cccc(S(=O)(=O)N2CCOCC2)c1
[1]
  EC50: 1.21 µM (active)

## COc1ccc(S(=O)(=O)N2CCOCC2)cc1NC(=O)c1ccc(OC(F)F)cc1
[2]
  EC50: > 32 µM (inactive)
[3]
  IC50: > 32 µM (inactive)
[4]
  EC50: > 32 µM (inactive)
[5]
  IC50: > 32 µM (inactive)
[6]
  IC50: > 32 µM (inactive)
[7]
  EC50: > 32 µM (inactive)
[8]
  EC50: > 32 µM (inactive)

## O=C(CCl)Nc1cn(-c2ccccc2)nc1-c1ccccc1
[9]
  IC50: 5.28 µM (active)
[10]
  EC50: > 20 µM (inactive)
[11]
  AC50: 13.1 µM (active)
[12]
  IC50: 9.25 µM (active)
[13]
  CC50: 6.92 µM (active)
[14]
  EC50: 8.36 µM (active)
[15]
  EC50: 4.78 µM (active)
[16]
  AC50: 14.5 µM (active)
[17]
  EC50: 16.2 µM (active)
[18]
  EC50: > 150 µM (inconclusive)
[19]
  IC50: > 20 µM (inactive)
[20]
  EC50: 6.32 µM (active)
[21]
  IC50: > 20 µM (inactive)
[22]
  Absolute IC50 (CHOP): 10 µM
[23]
  EC50: 14.4 µM (active)
